Results as given in PMC6895180 (Nature Communications, 2019).
Where “and” joins values, the source holds several entries; their conditions need not be identical. Equal values may be shown once. Read-outs that look alike come from different tables or passages of the source. Marks after values point to notes of the source that are not given here.

Legend:
[1] = system: Nc1ncnc2c1ncn2[C@@H]1O[C@H](CO)[C@@H](O)[C@H]1O; test: cells, lysate or membranes; conditions: other: mean ± SEM, n = 3; pH 7.3
[2] = system: T. brucei Squib 427; test: microbe, parasite or virus in culture; assay type: cell-based, Trypanosoma brucei brucei; conditions: for EC50: Trypanosoma brucei
Method: (§1) Drug susceptibility tests with Lister 427WT, TbAT1-KO[48], B48[26] and ISMR1[27] were performed using an assay based on the viability indicator dye resazurin in 96-well plates, each well containing 2 × 10^4 cells. The plates were incubated for 48 h with a doubling dilution series of the test compounds in HMI-9/fetal bovine serum at 37 °C/5% CO2 (23 dilutions starting at 100 µM, except for the pentamidine control (50 µM)), after which resazurin (20 µL of 125 µg mL^−1 resazurin sodium salt solution was added to each well (containing 200 µL of cells and test compound)) was added to each well and the plates incubated for another 24 h. Fluorescence was determined using a FLUOstar Optima (BMG Labtech, Durham, NC) and the results fitted to a sigmoid curve with variable slope using Prism 5.0 or Prism 7.04 (GraphPad, San Diego, CA).
(§2) Susceptibility assays with T. brucei Squib 427[49] or T. b. rhodesiense STIB-900[50] were performed under similar conditions as above, but using 10 concentrations of a 4-fold compound dilution series starting at 64 µM. Trypanosoma brucei Squib 427 was seeded at 1.5 × 10^4 parasites/well and T. b. rhodesiense at 4 × 10^3 parasites per well, followed by the addition of resazurin (final concentration of 10 µg mL^−1) after 24 h (T. brucei) or 6 h (T. b. rhodesiense).

[3] = system: T. b. rhodesiense STIB-900; test: microbe, parasite or virus in culture; assay type: cell-based, Trypanosoma brucei rhodesiense
Method: as §1, §2

[4] = Cytotoxicity on MRC-5 fibroblasts (resazurin); assay type: cell-based, human; conditions: human
Method: Cytotoxicity assays were performed on MRC-5SV2 (Sigma-Aldrich/ECACC, catalogue number 84100401) human embryonic lung fibroblasts, which were cultured in minimum essential medium with Earle’s salt medium, supplemented with L-glutamine, NaHCO3 and 5% inactivated foetal calf serum. All cultures and assays were conducted at 37 °C with 5% CO2. Ten microliters of the aqueous compound dilutions were added to 190 µL of MRC-5SV2 (3 × 10^4 cells mL^−1). Cell growth was compared to untreated control wells (100% cell growth) and medium control wells (0% cell growth). After a 3-day incubation, cell viability was assessed fluorimetrically after the addition of 50 μL resazurin per well (final concentration of 10 µg mL^−1). After 4 h at 37 °C, fluorescence was measured (λex 550 nm, λem 590 nm). The results were expressed as percentage reduction in cell growth/viability compared to control wells and an EC50 was determined.

[5] = system: T. b. brucei Lister 427WT; test: Drug susceptibility test (resazurin), Lister 427WT; assay type: cell-based, Trypanosoma brucei brucei; conditions: Trypanosoma brucei
Method: as §1

[6] = system: ISMR1: isometamidium-resistant T. brucei cell line; test: microbe, parasite or virus in culture; assay type: cell-based, Trypanosoma brucei brucei
Method: as §1

[7] = system: TbAT1-KO: T. brucei cell line lacking the TbAT1(P2) transporter gene; test: microbe, parasite or virus in culture; assay type: cell-based, Trypanosoma brucei brucei
Method: as §1

[8] = system: B48: pentamidine, diminazene and melaminophenyl arsenical resistant T. brucei line; test: microbe, parasite or virus in culture; assay type: cell-based, Trypanosoma brucei brucei; conditions: for EC50: Trypanosoma brucei
[9] = target: Lister 427WT T. b. brucei; test: Adenosine deaminase susceptibility (drug sensitivity with/without 2 µM deoxycoformycin); assay type: cell-based, Trypanosoma brucei brucei; conditions: for EC50: Trypanosoma brucei, Lister 427WT, mean ± SEM, n=3
Method: as §1, with “CA). […]” for “CA).”
Adenosine deaminase susceptibility
in the presence or absence of 2 µM 2’-deoxycoformycin. […]

[10] = parameters: method as in earlier work; conditions: ref 36 (Olsen, D. B. et al.), cited from earlier work
[11] = substrate: Nc1ncnc2c1ccn2[C@@H]1O[C@H](CO)C[C@H]1O; test: ADKIN assay (phosphorylation by purified recombinant enzyme, HPLC); assay type: biochemical, Trypanosoma brucei; conditions: other: first phosphorylation step; mean and SE, n = 3; pH 7.5
Method: The T. brucei ADKIN enzyme was diluted in a buffer containing 0.05% (v/v) Tween-20, 50 mM KCl, 0.1 mM dithiothreitol, and 50 mM Tris-HCl, pH 7.5 (dilution buffer), prior to use in the assay. The final assay mixture contained 12.5 ng T. brucei ADKIN, a range between 50 and 1000 µM of nucleoside 9 (or 1000 µM deoxyadenosine in the control reaction), 100 mM KCl, 10 mM MgCl2, 0.5 mM ATP, 5 mM potassium phosphate and 50 mM Tris-HCl, pH 7.5. The assay was incubated at 37 °C for 30 min, and subsequently heated for 2 min at 100 °C to inactivate the enzyme, diluted with 2 volumes of water, centrifuged through a Nanosep 3k Omega filter and mixed 1:1:2 with water and mobile phase. The HPLC analysis was performed on a 2.1 × 150 mm ACE Excel C18 column using a mobile phase composition 4A:76B:20C (see nucleotide pool analysis, Supplementary Information for details). Using these conditions, consecutive samples could be loaded (Supplementary Fig. 12). After 4–5 samples, the column was washed with high percent A (80A:20C) to remove bound ADP and ATP before re-equilibrating the column to original conditions.

Molecule: P2 transporter (TbAT1) (Trypanosoma brucei)
- Km [1]: 0.53 ± 0.02 µM

Molecule: Nc1ncnc2c1ccn2[C@@H]1O[C@H](CO)[C@@H](O)[C@H]1O [Compound 6, Tubercidin, reference compound]
- SI (MRC/T.b. brucei) [2]: 4
- EC50 ([2]; Alamar blue cell viability assay, mean and SEM, read-out: T. b. brucei EC50): 480 ± 100 nM
- EC50 ([2]; source data, read-out: T. brucei brucei EC50, Average): 480 nM
- SI (MRC/T.b. rhodesiense) [3]: 61
- EC50 ([3]; Trypanosoma brucei, RHODESIENSE, Alamar blue cell viability assay, mean and SEM, read-out: T. b. rhodesiense EC50): 36 ± 1 nM
- EC50 ([3]; Trypanosoma brucei, RHODESIENSE, source data, read-out: T. brucei rhodesiense EC50, Average): 36 nM
- EC50 ([3]; Trypanosoma brucei, RHODESIENSE, source data, read-out: T. brucei rhodesiense EC50, single measurements): 35 nM
- EC50 ([3]; source data, read-out: T. brucei rhodesiense EC50, single measurements): 33.2 nM and 39.9 nM
- EC50 at 3 day ([4]; cytotoxicity in human MRC-5 fibroblasts, mean and SEM, read-out: MRC-5 EC50): 2200 ± 700 nM
- EC50 at 3 day ([4]; source data, read-out: MRC-5 EC50, Average): 2230 nM
- EC50 ([5]; mean and SEM, n = 3, read-out: Lister 427 EC50): 150 ± 30 nM
- EC50 ([5]; source data, read-out: s427 EC50, AVG): 151 nM
- EC50 ([6]; Trypanosoma brucei, mean and SEM, n = 3, read-out: ISMR1 EC50): 1700 ± 500 nM
- EC50 ([6]; Trypanosoma brucei, source data, read-out: ISMR1 EC50, AVG): 1670 nM
- EC50 ([6]; Trypanosoma brucei, source data, read-out: ISMR1 EC50, single determinations): 2150 nM
- RF (ISMR1) ([6]; resistance factor vs Lister 427WT): 11.1**
- EC50 ([6]; source data, read-out: ISMR1 EC50, single determinations): 1190 nM
- EC50 ([7]; Trypanosoma brucei, read-out: TbAT1-KO EC50, mean and SEM, n = 3): 2610 ± 700 nM
- EC50 ([7]; Trypanosoma brucei, read-out: TbAT1-KO EC50, single determinations, source data): 3260 nM
- EC50 ([7]; read-out: TbAT1-KO EC50, single determinations, source data): 1950 nM
- RF (TbAT1-KO) ([7]; resistance factor: ratio of EC50 of resistant and Lister 427WT): 17.2**
- RF (B48) [8]: 28.7*
- EC50 ([8]; mean and SEM, n = 3, read-out: B48 EC50): 4300 ± 1300 nM
- EC50 ([8]; source data, read-out: B48 EC50, AVG): 4340 nM
- effect of adenosine deaminase inhibition (2’-deoxycoformycin) on EC50 [9]: not significantly affected
- EC50 ([9]; absence of deoxycoformycin, read-out: T. b. brucei EC50, -Dcf): 220 ± 10 nM
- EC50 ([9]; presence of 2 µM deoxycoformycin, read-out: T. b. brucei EC50, +Dcf): 310 ± 70 nM
- acute toxicity in mice ([10]; 20 mg/kg over 14 days): tolerated with no visible signs of toxicity
- acute toxicity in mice ([10]; 50 mg/kg): lethal

B1: T. brucei ADKIN (Trypanosoma brucei brucei TREU927) (protein)
chain: MSSAPLRVYVQCNPLLDVSAHVSDEFLVKYGLERGTAILLSERQKGIFDDIEKMPNVRYVPGGSGLNVARVAQWMQQAYKGKFVTYVGCIADDRYGKVLKEAAEHEGIVMAVEHTTKAGSGACAVCITGKERTLVADLGAANHLSSEHMRSPAVVRAMDESRIFYFSGFTLTVDVNHVLQACRKAREVDGLFMINLSAPFIMQFFSAQLGEVLPYTDIIVANRHEAKEFANMMKWDTDCVEEIARRAVSEVPYTGTKGRVVVFTRDIEPTVIATKDGVETVPVPQLDQDKVIDMNGAGDAFVGGFLSAYAVGKDLRRCCETGHYTAQEVIQQDGCSFPEKPSFSP
- Km [11]: 195 ± 24 µM
